In assay [1] the test system is tumor cell cultures (P388, MCF-7, PC3). Particulars: in vitro; for inhibition on the cell proliferation: serial dilutions, vs untreated control; for comparison among the conjugates: inhibition on the cell proliferation: ranking among tested conjugates. The source says:
(§1) Cell Lines Used in the Experiments: • P388 mouse lymphocytic leukemia cell line, originated from Arthur D. Little Inc., Cambridge, Mass., USA, in vitro established in the National Institute of Oncology, Budapest, Hungary (Cancer Treat. Rep. 1986; 70: 279–284); • MCF-7 humane breast cancer cell line, originated from American Type Culture Collection; • PC3 humane prostate cancer cell line, originated from American Type Culture Collection;
Sulforodamine B (SRB) assay: approximately one to two thousand cells were put into each well of the special, small plastic tray (micro-well-plates). The cells were incubated in adequate medium and conditions and after adhering to the surface, were treated with serial dilutions of the different polycation bioconjugates, prepared according to the invention. At the end of the experiment the cells were fixed, stained with SRB, and the optical density, which is in direct proportion to the cell proliferation, was read in a CLS 962 ELISA microplate reader. Relative inhibition of proliferation was calculated by taking the control values as 100 per cent. (Cancer Detection and Prevention, 20(2): 146–152, 1996).
Cell counting method, with Neubauer-type chamber: in suspension cultures of exponentially growing cells, which were in adequate medium and conditions, were treated with serial dilutions of the different polycation bioconjugates, prepared according to the invention, and 24- and 48 hours following the treatment the cells were stained with tripan-blue, the treated and control cells were counted in a modified Neubauer-type hemocytometer chamber. Relative inhibition of proliferation was calculated by taking the control values as 100 per cent.

For another assay, the system named is MCF-7, or PC3 cells. Conditions: tumor cell cultures, in vitro; for inhibition on the colony formation: serial dilutions, vs untreated control; for comparison among the conjugates: inhibition on the colony formation: ranking among tested conjugates. Here is the method: as §1
MCF-7, or PC3 cells were plated into petri dishes, then in adequate medium and conditions, were incubated the cells with serial dilutions of the different polycation bioconjugates, prepared according to the invention. The colonies, consisting minimum 30 cells were then counted and the obtained values of three parallel petri dishes were averaged. Relative cloning efficiency was calculated by taking the control values as 100 per cent. (Cancer Detection and Prevention, 20(2): 146–152, 1996).

For assay [2], the system named is transplantable rodent tumors (P-388 lymphoid leukemia, S-180 sarcoma). Particulars: mouse, in vivo.
Source text: The tumor growth inhibitory effect of the polycation bioconjugates was studied on the following transpalatable rodent tumors: • P-388 lymphoid leukemia cells, originated from Cambridge, Mass., USA, were transplanted i.p. and s.c. into animals: BDF1 inbred male mice, weighing 22–24 g, specified pathogen free (SPF) breedings; • S-180 sarcoma, originated from Chester Beatty I., London, were transplanted s.c. into animals: BDFI inbred male mice, weighing 22–24 g, specified pathogen free (SPF) breedings.

With “cholesterol-hemisuccinyl-poly-(ε)-L-lysine-hydrogen-bromide”, the “inhibition on the cell proliferation” value in assay [1] is “dose dependent inhibition”. Moreover, the “inhibition on the colony formation” value with MCF-7, or PC3 cells is recorded as “dose dependent inhibition”. Further, the “inhibitory effect on transplantable rodent tumors (mean tumor volumes, tumor growth curves)” value in assay [2] is reported as “significant inhibitory effect”.

For “poly-(ε)-L-lysine-cisplatin-hydrogen-bromide”, in assay [1], the “comparison among the conjugates: inhibition on the cell proliferation” value is given as “most effective inhibition” and the “inhibition on the cell proliferation” value is reported as “dose dependent inhibition”. Besides, in the assay on MCF-7, or PC3 cells, the “comparison among the conjugates: inhibition on the colony formation” value is on record as “most effective inhibition” and the “inhibition on the colony formation” value was “dose dependent inhibition”.

“palmitoyl-poly-(ε)-L-lysine-hydrogen-bromide”: in assay [1], the “comparison among the conjugates: inhibition on the cell proliferation” value is “most effective inhibition” and the “inhibition on the cell proliferation” value is reported as “dose dependent inhibition”. Besides, in the assay on MCF-7, or PC3 cells, the “comparison among the conjugates: inhibition on the colony formation” value was “most effective inhibition” and the “inhibition on the colony formation” value is reported as “dose dependent inhibition”. In assay [2], the “inhibitory effect on transplantable rodent tumors (mean tumor volumes, tumor growth curves)” value was “significant inhibitory effect”.

The record behind these values is patent publication US7090846B2 (priority 1999, dated 2006).
